ChEMBL document CHEMBL4706667, “Click synthesis of 1,2,3-triazole based imidazoles: Antitubercular evaluation, molecular docking and HSA binding studies” (Bioorg Med Chem Lett, 2021)
Converted amounts (≈) assume the structure as drawn.

Assays:
Albumin [1] = molecular target: T1, Albumin (Homo sapiens, UniProt P02768); experiment: Binding affinity to human serum albumin assessed as quenching constant; format: ADME; conditions: isolated protein
[2] = test system: Mycobacterium tuberculosis; experiment: Antitubercular activity against Mycobacterium tuberculosis H37Rv assessed as bacterial growth inhibition incubated for 28 days by agar dilution method; format: functional; conditions: 672 h, time 28 day
Albumin [3] = molecular target: T1, Albumin; experiment: Binding affinity to human serum albumin assessed as binding constant; format: ADME; conditions: isolated protein
Albumin [4] = molecular target: T1, Albumin; experiment: Binding affinity to human serum albumin assessed as distance between the acceptor and donor by FRET assay; format: ADME; conditions: isolated protein
Albumin [5] = molecular target: T1, Albumin; experiment: Binding affinity to human serum albumin assessed as quenching of intrinsic fluorescence at 2.5 to 15 uM and 298 K by fluorescence spectroscopy; format: ADME; conditions: isolated protein, dose 2.5-15 µM
Vero = experiment: Cytotoxicity against African green monkey Vero cells assessed as reduction in cell viability measured after 72 hrs by MTT assay; format: cell-based; conditions: Chlorocebus sabaeus
Albumin [6] = molecular target: T1, Albumin; experiment: Binding affinity to human serum albumin at protein to compound molar ratio of 1:1 by fluorescence spectroscopy; format: ADME; conditions: isolated protein
Albumin [7] = molecular target: T1, Albumin; experiment: Binding affinity to human serum albumin assessed as critical distance with 50% energy transfer between protein and compound by FRET assay; format: ADME; conditions: isolated protein
Albumin [8] = molecular target: T1, Albumin; experiment: Binding affinity to human serum albumin assessed as Stem-Volmer quenching constant; format: ADME; conditions: isolated protein

T1 sequence (P02768 whole entry): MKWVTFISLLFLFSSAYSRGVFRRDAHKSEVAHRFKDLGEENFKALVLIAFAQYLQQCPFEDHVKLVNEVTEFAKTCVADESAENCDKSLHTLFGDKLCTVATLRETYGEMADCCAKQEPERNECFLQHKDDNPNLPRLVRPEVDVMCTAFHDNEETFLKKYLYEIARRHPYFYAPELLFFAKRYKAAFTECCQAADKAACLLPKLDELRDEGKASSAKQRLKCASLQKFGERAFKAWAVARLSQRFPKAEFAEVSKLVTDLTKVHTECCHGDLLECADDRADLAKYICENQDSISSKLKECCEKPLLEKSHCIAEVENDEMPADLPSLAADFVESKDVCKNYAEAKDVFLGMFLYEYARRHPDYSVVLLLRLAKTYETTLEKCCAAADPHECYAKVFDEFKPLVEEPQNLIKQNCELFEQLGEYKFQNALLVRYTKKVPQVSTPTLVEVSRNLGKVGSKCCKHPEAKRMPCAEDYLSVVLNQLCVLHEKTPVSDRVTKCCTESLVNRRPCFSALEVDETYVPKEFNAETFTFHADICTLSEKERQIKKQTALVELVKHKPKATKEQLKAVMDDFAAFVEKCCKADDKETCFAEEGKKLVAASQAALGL

Structure (SMILES)	Kq (Albumin [1])	MIC [2] [µM]	Kb (Albumin [3])	Activity (Albumin [4]) [nm]	Activity (Albumin [5])	IC50 (Vero) [µM]	Activity (Albumin [6])	Activity (Albumin [7]) [nm]	KSV (Albumin [8])
NC(=O)c1ccc(-n2cc(CNC(=O)c3c[nH]c(-c4ccccc4)n3)nn2)cc1	8.36 10^12L/mol/s	1.47 (≈ 0.569 µg/mL)	2.58 10^3L/mol	2.09	Active	198	Active	1.49	5.02 10^4L/mol
COc1ccc(-n2cc(CNC(=O)c3c[nH]c(-c4ccccc4)n3)nn2)cc1		10.6 (≈ 3.98 µg/mL)				388			
O=C(NCc1cn(-c2ccc(O)cc2)nn1)c1c[nH]c(-c2ccccc2)n1		5.19 (≈ 1.87 µg/mL)				281			
Nc1ccc(-n2cc(CNC(=O)c3c[nH]c(-c4ccccc4)n3)nn2)cc1	8.11 10^12L/mol/s	2.03 (≈ 0.73 µg/mL)	2.16 10^3L/mol	2.36	Active	237	Active	1.81	4.38 10^4L/mol
Cc1ccc(-n2cc(CNC(=O)c3c[nH]c(-c4ccccc4)n3)nn2)cc1		19.5 (≈ 6.97 µg/mL)				409			
NNC(=O)c1ccncc1 [ISONIAZID]		0.36 (≈ 0.0494 µg/mL)				> 456			
